Test results published in patent publication US20230165865A1, “HETEROARYLDIHYDROPYRIMIDINE DERIVATIVES AND METHODS OF TREATING HEPATITIS B INFECTIONS” (Janssen Pharmaceutica NV, priority 2018, published 2023).

Tests used:
[1] = test system: HBV; experiment: Anti-viral assay in HepG2.2.15 cells: anti-HBV activity, HBV DNA in culture medium by qPCR; assay type: cell-based; conditions: HepG2.2.15 cells, 6 days treatment, HBV DNA by qPCR; read-out: EC50
Procedure, shortened: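 Cells in 2% FBS medium treated 6 days, compound and medium refreshed at day 3; 8-point 1:3 dilutions in triplicate, top 10 or 1 uM (antiviral) and 100 uM (cytotoxicity). Extracellular viral DNA quantified by qPCR, giving EC50 and CC50.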

[2] = Cytotoxicity determination in HepG2.2.15 cells (CCK-8 assay); assay type: cell-based; conditions: human, 6 days treatment, CCK-8, highest concentration 100 uM
Procedure, shortened: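 HepG2.2.15 cells (5,000/well, 2% FBS medium) were treated for 6 days, with medium and compound refreshed at day 3. Dosing was an 8-point 1:3 series from 100 uM, in triplicate. Viability was measured by CCK-8 after 2.5 h at 37 °C (A450, 630 nm reference), and CC50 was calculated.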

## CCOC(=O)C1=C(CN2CCN3C(=S)N(CC(C)(C)C(=O)O)CC3C2)NC(c2nccs2)=N[C@H]1c1cccc(F)c1C (single isomer, unassigned) [Compound 1A]
[1]
  EC50: 0.0063 µM
[2]
  CC50 at 6 days: 22.5 µM
